The results in this text go back to patent US20150065509A1 (priority 2012, published 2015).

The test system of one series is B. anthracis Sterne. Nature of the series: microbe, parasite or virus in culture. In kind it is cell-based. As to conditions: for MIC: Bacillus anthracis, 16 h, read-out: MIC (Minimum Inhibitory Concentration).
For series [1], the target named is dihydrofolate reductase (DHFR) (Bacillus anthracis, UniProt Q81R22). Nature of the series: biochemical. Type of series: biochemical, B. anthracis Sterne.

The structures appear in SMILES notation. Converted amounts (≈) assume the structure as drawn. Like-named read-outs stand apart in the source and are kept apart here.

Chain of dihydrofolate reductase (DHFR) (Q81R22 1-162): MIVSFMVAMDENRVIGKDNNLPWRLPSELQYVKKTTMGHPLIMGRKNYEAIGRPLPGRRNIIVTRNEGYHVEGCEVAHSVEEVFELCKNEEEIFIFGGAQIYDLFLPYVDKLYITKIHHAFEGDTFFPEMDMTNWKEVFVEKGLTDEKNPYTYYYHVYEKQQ

Turning to `CCCC1c2ccccc2C=NN1C(=O)/C=C/c1cc(Cc2c(C)nc(N)nc2N)cc(OC)c1OC` (centres unmarked) [Compound 10, (E)-3-(5-((2,4-Diamino-6-methylpyrimidin-5-yl)methyl)-2,3-dimethoxyphenyl)-1-(1-propyl-phthalazin-2(1H)-yl)prop-2-en-1-one], the melting point (usually the temperature, or range, at which the solid turns liquid) lay in the range of 137 to 138 °C. In the series on B. anthracis Sterne, the MIC worked out at 8000 µg/mL (≈ 16 mM). Moreover, in series [1], the half-inhibitory concentration (IC50) (as a rule, the concentration that gives 50% inhibition) was determined as 0.517 µM.
With `CCCC1c2ccccc2C=NN1C(=O)/C=C/c1cc(Cc2c(N)nc(N)nc2CC)cc(OC)c1OC` (centres unmarked) [Compound 11, (E)-3-(5-((2,4-Diamino-6-ethylpyrimidin-5-yl)methyl)-2,3-dimethoxyphenyl)-1-(propyl-phthalazin-2(1H)-yl)prop-2-en-1-one], the “MIC (Minimum Inhibitory Concentration)” value in the series on B. anthracis Sterne was found to be 4000 µg/mL (≈ 7.77 mM). In series [1] (read-out: IC50), the concentration for half-maximal inhibition (IC50) was 17.4 µM.
With `CCCc1nc(N)nc(N)c1Cc1cc(/C=C/C(=O)N2N=Cc3ccccc3C2CCC)c(OC)c(OC)c1` (centres unmarked) [Compound 12, (E)-3-(5-((2,4-Diamino-6-propylpyrimidin-5-yl)methyl)-2,3-dimethoxyphenyl)-1-(1-propyl-phthalazin-2(1H)-yl)prop-2-en-1-one], the melting point lay within 140 to 141 °C. The MIC with B. anthracis Sterne is 1000 µg/mL (≈ 1.89 mM). 17.1 µM corresponded to half-maximal inhibition in series [1] (IC50).
Consider `COc1cc(Cc2c(C)nc(N)nc2N)cc(/C=C/C(=O)N2N=Cc3ccccc3C2C=C(C)C)c1OC` (centres unmarked) [Compound 13, (E)-3-(5-((2,4-Diamino-6-methylpyrimidin-5-yl)methyl)-2,3-dimethoxyphenyl)-1-(isobutenylphthalazin-2(1H)-yl)prop-2-en-1-one], for which the “MIC (Minimum Inhibitory Concentration)” value with B. anthracis Sterne came out at 4000 µg/mL (≈ 7.8 mM). In addition, in series [1] (read-out: IC50), the IC50 was found to be 0.102 µM.
In the case of `CCc1nc(N)nc(N)c1Cc1cc(/C=C/C(=O)N2N=Cc3ccccc3C2C=C(C)C)c(OC)c(OC)c1` (centres unmarked) [Compound 14, (E)-3-(5-((2,4-Diamino-6-ethylpyrimidin-5-yl)methyl)-2,3-dimethoxyphenyl)-1-(isobutenylphthalazin-2(1H)-yl)prop-2-en-1-one], the “MIC (Minimum Inhibitory Concentration)” value against B. anthracis Sterne came out at 4000 µg/mL (≈ 7.6 mM). In addition, in series [1] (read-out: IC50), the concentration for half-maximal inhibition (IC50) was 0.181 µM.
In the case of `CCCc1nc(N)nc(N)c1Cc1cc(/C=C/C(=O)N2N=Cc3ccccc3C2C=C(C)C)c(OC)c(OC)c1` (centres unmarked) [Compound 15, (E)-3-(5-((2,4-Diamino-6-propylpyrimidin-5-yl)methyl)-2,3-dimethoxyphenyl)-1-(isobutenylphthalazin-2(1H)-yl)prop-2-en-1-one], the “MIC (Minimum Inhibitory Concentration)” value against B. anthracis Sterne worked out at 2000 µg/mL (≈ 3.7 mM). Moreover, the IC50 in series [1] (read-out: IC50) turned out to be 18 µM.
